# Results: US20100130597A1, “DNA-PKCS MODULATES ENERGY REGULATION AND BRAIN FUNCTION” (The United State of America, as represented by the …, priority 2007, published 2010)
# Columns and labels:
# [1] = Body weight, fat and lean mass, food intake and activity of treated mice; type: in vivo
# Protocol: To determine the source of the body weight difference observed as described in Example 9, the fat and lean mass of the animals used in these experiments were measured using NMR spectroscopy (Bruker BioSpin Corporation, Houston, Tex.). Body fat indices were calculated by dividing fat or lean mass by body weight.
# (§1) The therapeutic potential of DNA-PKcs inhibitors to treat insulin resistance and diabetes was tested in vivo using high-fat induced type 2 diabetes and obesity models. We examined the effects of DNA-PKcs inhibition by feeding C57BL6/J mice with Compound 36 (Cpd36) or vehicle. Mice were treated with Cpd36 (8 mg/kg body weight) twice daily by oral gavage for three months in all efficacy studies shown in FIGS. 40-47.
# Body weight was monitored in mice receiving Cpd36 (8 mg/kg body weight) twice daily by oral gavage for three months.
# [2] = Glucose levels, insulin tolerance and glucose tolerance tests in treated mice; type: in vivo; conditions: for fed glucose levels in the serum: 8 mg/kg twice daily oral gavage three months
# Protocol: as §1
# [3] = Treadmill running endurance; type: in vivo, mice
# Protocol: Previous studies have shown that increased expression of PPARδ or PGC-1α in skeletal muscle decreases exercise-induced fatigue. Therefore, tests were performed to ascertain what was the physical endurance of 4, 7 and 14 month-old SCID and WT mice using treadmill running. Prior to the exercise test, the mice were accustomed to and trained by running on an Exer-3/6 mouse treadmill (Columbus Instruments) at 7 m/min for 5 minutes for 3 days. For the endurance test, the treadmill speed was increased to 10 m/min and mice were allowed to run until exhaustion.
# The therapeutic potential of DNA-PKcs inhibitors to reverse physical decline with aging was tested. In particular, the physical endurance of obese and middle-aged mice treated with Cpd36 was examined by treadmill running. Obese mice fed a high-fat diet that were treated with Cpd36 were able to run 40-50% farther over a given period of time than the control mice fed the same high fat diet (FIG. 45), as measured by totaling the distance run on a treadmill. Middle-aged mice (13 months) fed a breeder diet who were similarly treated with Cpd36 were also able to run 40-50% farther than middle aged mice that received no such treatment (data not shown).
# [4] = Blood lactate during standardized treadmill test; type: in vivo, mice; conditions: capillary blood during standardized treadmill test, FIG. 46A
# Protocol: The use of Cpd36 may also facilitate more rapid recovery following intense physical exertion. Blood lactate concentrations were measured in capillary blood during a standardized treadmill test.
# [5] = Elevated plus maze test; type: in vivo, mice
# Protocol: To evaluate whether SCID mice may also have altered anxiety, fear and depression-like traits, an elevated plus maze test was performed, which is a commonly used test to quantify the level of anxiety- and depression-like traits in rodents (Pellow et al. J. Neurosci. Methods 14: 149-67 (1985)). The elevated plus maze has narrow runways that are located 16 inches above the surface that are either closed or open. The animal is placed in the center of an elevated 4-arm maze in which 2 arms are open and 2 are enclosed. Mice generally avoid the open arms because of their fear of open space and height. The elevated plus-maze is used to determine the rodent's response to a potentially dangerous environment and anxiety-related behavior is measured by the degree to which the rodent avoids the unenclosed arms of the maze. Increase in the number of times the animal enters the open arm and the amount of time spent in the open arms reflect decreased anxiety and depression.
# (§2) Elevated plus maze tests, light/dark chamber tests, forced swim tests (FST) and hot plate tests were performed as described earlier.
# [6] = Light/dark chamber test; type: in vivo; conditions: treated vs untreated mice
# Protocol: WT and SCID mice were tested in another anxiety test using the light-dark box (Bourin and Hascoet, Eur J Pharmacol 463:55 (2003)). The light-dark box test is based on the innate aversion of rodents to brightly illuminated areas and on the spontaneous exploratory behavior of rodents in response to a mildly stressful situation, that is, a novel environment and light (Crawley and Goodwin Pharmacol Biochem Behav 13:167, 1980). In the light-dark test, increased activity in the light compartment indicates decreased anxiety.
# as §2
# [7] = Forced swim test (FST); type: in vivo, mice
# Protocol: as §2
# [8] = Hot plate test, latency for pain reaction; type: in vivo, mice; conditions: hot plate, FIG. 48E
# Protocol: Epidemiological studies indicate that people with mood disorders are twice as likely to have chronic pain compared to people without mood disorders (Ohayon et al., Arch. Gen. Psychiatry 60: 39-47 (2003)). Although it is possible that pain contributes to the depressed mood, it is also possible that perception of pain is increased in people with mood disorders. To determine whether SCID mice have altered pain tolerance, the latency for pain reaction to a hot plate was measured. […] (FIG. 30) and at 55° C.
# Because tolerance to pain (Example 26) is also linked to the serotonergic pathways, measurements of the latency to pain reaction on hot plate after saline, serotonin reuptake inhibitor fluoxetine (Prozac) or serotonin antagonist GR38032F (Zofran) injection were made.
# as §2
# [9] = tested on: C2C12 cells; assay: Cellular lactate and pyruvate in C2C12 cells; type: cell-based; conditions: 0.8 μM
# [10] = tested on: C2C12 cells; assay: Intercellular NAD:NADH ratio in C2C12 cells; type: cell-based; conditions: FIG. 54, Resveratrol 50 μM data not shown
# Protocol: To test whether DNA-PKcs inhibitor affects Sirt1 activity, the intercellular NAD:NADH ratio was measured in C2C12 cells treated with Cpd36.
# [11] = Blood-brain barrier penetration inferred from behavioural effects; type: in vivo, mice; conditions: inferred from decreased anxiety/depression at a low-dose
# From the text: For any central nervous system drugs, a major rate-limiting step for uptake into the brain is BBB permeability. […] The BBB is an essential physiological barrier for the maintenance and regulation of brain function. It is comprised of brain microvascular endothelial cells that are connected by tight junctions. This transvascular route to the brain is impenetrable to the majority of drugs. Enhanced BBB permeability is obtained, for example, by increasing the lipid solubility of the water-soluble molecules.
smiles,measurement,setting,value
"O=c1cc(N2CCOCC2)oc2c(-c3cccc4c5c(sc34)CCCC5)cccc12 [Compound 36, 8-(6′,7′,8′,9′-Tetrahydrodibenzothiophen-4′-yl)-2-N-morpholinochromen-4-one]",fat mass (NMR),"[1]; HFD mice vs control, FIG. 44",reduction in fat mass
same,lean mass (NMR),"[1]; HFD mice vs control, FIG. 44",slight increase in lean mass
same,body weight,"[1]; HFD mice, 8 mg/kg twice daily oral gavage three months, FIG. 43",did not increase in body weight substantially
same,food intake,"[1]; HFD mice, 8 mg/kg twice daily oral gavage three months, data not shown",did increase
same,activity of mice vs control HFD mice,"[1]; HFD mice, data not shown",no significant difference
same,mesenteric fat,"[1]; mice on HFD 3 months, 8 mg/kg twice daily oral gavage 3 months, vs vehicle",reduced mesenteric fat significantly
same,fed glucose levels in the serum,"[2]; HFD (obese) mice, FIG. 40A",lowered fed glucose levels
same,fed glucose levels in the serum,"[2]; middle-aged mice (breeder diet 13 months), FIG. 40B",lowered fed glucose levels
same,glucose tolerance,"[2]; middle-aged mice, FIG. 41",increased
same,insulin sensitivity,"[2]; middle-aged mice, FIG. 41",increased
same,glucose tolerance,"[2]; obese mice, FIG. 42",increased
same,insulin sensitivity,"[2]; obese mice, FIG. 42",increased
same,"distance run on treadmill, farther than untreated","[3]; middle-aged mice (13 months) on breeder diet, data not shown",40-50%
same,"distance run on treadmill, farther than control","[3]; obese mice on high-fat diet, FIG. 45",40-50%
same,serum lactate levels,[4],Significantly lower serum lactate levels
same,levels of anxiety/depression,"[5]; elevated plus maze and light/dark chamber tests, FIGS. 47 and 48",dramatically lower levels of anxiety/depression
same,time in closed arm of the elevated plus maze,[5]; treated vs untreated mice,less time in a closed arm
same,time in the light compartment,[6],more time in the light compartment
same,time to enter the light chamber,[6],quicker to enter the light chamber
same,mobility vs untreated mice,[7]; FIG. 47D,more mobile
same,immobility in the forced swim test,[7]; data not shown,decreased immobility
same,pain sensation,[8],decreased pain sensation
same,lactate levels in cell extracts,"[9]; 16 hrs, FIG. 46B",Reduced lactate levels
same,Cellular pyruvate level,[9]; data not shown,increased
same,intercellular NAD:NADH ratio,[10],increased the NAD:NADH ratio
same,blood-brain barrier (BBB) penetration,[11],can penetrate the blood-brain barrier (BBB) efficiently
